Read-outs that look alike come from different tables or passages of the source.
Experiments:
Format in all cases: cell-based
D3 DAR = D3 DAR (Homo sapiens (Human), UniProt P35462); details: β-arrestin recruitment, agonist
D2 DAR = D2 DAR (Homo sapiens (Human), UniProt P14416); details: β-arrestin recruitment, agonist; 'curve' = wrapped cell 'curve interrupted'
D3R [1] = target: T1, D3R (Homo sapiens (Human), UniProt P35462); test: BRET arrestin recruitment assay; details: orthogonal assay
D3R [2] = target: T1, D3R; test: Go BRET activation assay; details: orthogonal assay
D3R [3] = target: T1, D3R; test: ERK1/2 Phosphorylation assay; details: orthogonal assay
panel of 168 GPCRs [4] = target: panel of 168 GPCRs (Homo sapiens, UniProt P20309); details: GPCR CHRM3; agonist, 10 μM
panel of 168 GPCRs [5] = target: panel of 168 GPCRs (Homo sapiens, UniProt P28223); details: GPCR HTR2A; agonist, 10 μM
panel of 168 GPCRs [6] = target: panel of 168 GPCRs (Homo sapiens, UniProt P30550); details: GPCR GRPR; agonist, 10 μM
panel of 168 GPCRs [7] = target: panel of 168 GPCRs (Homo sapiens, UniProt P30872); details: GPCR SSTR1; agonist, 10 μM
panel of 168 GPCRs [8] = target: panel of 168 GPCRs (Homo sapiens, UniProt P30988); details: agonist, 10 μM
Sequence of panel of 168 GPCRs (Homo sapiens, UniProt P30988) (P30988 25-474 limits assumed): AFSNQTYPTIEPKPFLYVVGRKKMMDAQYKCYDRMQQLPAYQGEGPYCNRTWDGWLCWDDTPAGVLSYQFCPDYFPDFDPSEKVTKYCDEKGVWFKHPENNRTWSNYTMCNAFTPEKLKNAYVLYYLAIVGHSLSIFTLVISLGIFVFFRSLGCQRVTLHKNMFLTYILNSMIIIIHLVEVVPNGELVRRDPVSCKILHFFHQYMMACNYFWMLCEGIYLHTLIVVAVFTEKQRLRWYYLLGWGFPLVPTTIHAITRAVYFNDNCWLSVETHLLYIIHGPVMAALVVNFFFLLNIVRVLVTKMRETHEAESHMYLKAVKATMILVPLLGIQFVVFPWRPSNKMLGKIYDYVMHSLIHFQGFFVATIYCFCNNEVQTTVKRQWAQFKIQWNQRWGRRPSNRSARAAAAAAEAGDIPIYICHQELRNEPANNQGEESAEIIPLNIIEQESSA

panel of 168 GPCRs [9] = target: panel of 168 GPCRs (Homo sapiens, UniProt P32249); details: GPCR EBI2; agonist, 10 μM
panel of 168 GPCRs [10] = target: panel of 168 GPCRs (Homo sapiens, UniProt P35408); details: GPCR PTGER4; agonist, 10 μM
panel of 168 GPCRs [11] = target: panel of 168 GPCRs (Homo sapiens, UniProt P35462); details: GPCR DRD3; agonist, 10 μM
panel of 168 GPCRs [12] = target: panel of 168 GPCRs (Homo sapiens, UniProt P43116); details: GPCR PTGER2; agonist, 10 μM
panel of 168 GPCRs [13] = target: panel of 168 GPCRs (Homo sapiens, UniProt P51684); details: GPCR CCR6; agonist, 10 μM
panel of 168 GPCRs [14] = target: panel of 168 GPCRs (Homo sapiens, UniProt Q99788); details: GPCR CMKLR1; agonist, 10 μM
panel of 168 GPCRs [15] = target: panel of 168 GPCRs (Homo sapiens, UniProt Q9H1C0); details: GPCR GPR92; agonist, 10 μM
5HT2B receptor = 5HT2B receptor (Homo sapiens (Human), UniProt P41595); test: HTRF IP1 accumulation assay (Eurofins Cerep)
Sequence of 5HT2B receptor (P41595 whole entry): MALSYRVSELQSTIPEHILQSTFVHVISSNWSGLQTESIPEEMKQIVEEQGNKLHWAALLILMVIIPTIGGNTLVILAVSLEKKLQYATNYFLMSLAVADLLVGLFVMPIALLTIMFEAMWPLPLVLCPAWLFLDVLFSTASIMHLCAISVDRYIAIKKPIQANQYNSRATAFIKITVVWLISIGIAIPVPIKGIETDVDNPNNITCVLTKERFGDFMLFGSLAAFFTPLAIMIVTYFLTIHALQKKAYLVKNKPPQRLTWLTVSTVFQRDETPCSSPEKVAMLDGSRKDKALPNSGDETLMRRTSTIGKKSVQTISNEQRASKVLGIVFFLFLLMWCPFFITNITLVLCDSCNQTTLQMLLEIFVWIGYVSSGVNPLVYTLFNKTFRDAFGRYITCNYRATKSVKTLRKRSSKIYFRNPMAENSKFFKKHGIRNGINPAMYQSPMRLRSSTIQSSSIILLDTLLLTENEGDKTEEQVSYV

[16] = system: terminally differentiated SHSY5Y cells; test: Neuroprotection assay against 6-hydroxydopamine; details: 24 h pretreatment, 10 μM 6-hydroxydopamine
Protocol: […]. Protection against total neurite length decrease was measured 24 h later. […].

TA100 = test: Ames reverse mutation assay; details: highest conc. tested 2,000 μg/ml
Protocol: (§1) […]. The cultures were then diluted into an indicator medium lacking histidine, dispensed into a 384-well plate, and incubated for 48 h at 37° C. Cells that have undergone a reversion will grow, resulting in a color change. The number of wells showing growth were counted and compared to the vehicle control. […]. Data were analyzed using an unpaired, one-sided Student's T-test. Where indicated, S9 fraction from the livers of Aroclor 1254-treated rats were included in the incubation at a 4.5% final concentration. An NADPH-regenerating system was also included to ensure a steady supply of reducing equivalents.

TA98 = test: Ames reverse mutation assay; details: highest conc. tested 2,000 μg/ml
Protocol: as §1

[17] = Cytotoxicity screening panel, High Content Screening; details: human, HepG2 cells; Mitochondrial Membrane Potential, response direction ↓
Protocol: (§2) HepG2 cells were plated on 384-well tissue culture treated black walled clear bottomed polystyrene plates. The cells were dosed with test compound at a range of concentrations. At the end of the incubation period, the cells were loaded with the relevant dye/antibody for each cell health marker. The plates were then scanned using an automated fluorescent cellular imager, ArrayScan® (Thermo Scientific Cellomics). Cytotoxicity was assessed using a multi-parametric approach using High Content Screening (HCS). The following parameters were screened.
(§3) Nuclear size: An increase in nuclear area can indicate necrosis or G2 cell cycle arrest and a decrease can indicate apoptosis.
(§4) DNA structure: An increase in DNA structure can indicate chromosomal instability and DNA fragmentation.
(§5) Cell membrane permeability: An increase in cell membrane permeability is a general indicator of cell death.
(§6) Mitochondrial mass: A decrease in mitochondrial mass indicates loss of total mitochondria and an increase implies mitochondrial swelling or an adaptive response to cellular energy demands.
(§7) Mitochondrial membrane potential (Δψm): A decrease indicates a loss of mitochondrial membrane potential and mitochondrial toxicity, as well as a potential role in apoptosis signaling, an increase in mitochondrial membrane potential indicates an adaptive response to cellular energy demands.
(§8) Cytochrome c: An increase in cytochrome c release is one of the hallmarks of the apoptosis cascade.

HepG2 cells = test: as above
Protocol: as §2, §3, §4, §5, §6, §7, §8

[18] = Cell Membrane Permeability, response direction ↑
[19] = Cytochrome c, response direction ↑
[20] = DNA Structure, response direction ↑
[21] = Mitochondrial Mass, response direction ↑
[22] = Nuclear Size, response direction ↑

T1 sequence (P35462 whole entry): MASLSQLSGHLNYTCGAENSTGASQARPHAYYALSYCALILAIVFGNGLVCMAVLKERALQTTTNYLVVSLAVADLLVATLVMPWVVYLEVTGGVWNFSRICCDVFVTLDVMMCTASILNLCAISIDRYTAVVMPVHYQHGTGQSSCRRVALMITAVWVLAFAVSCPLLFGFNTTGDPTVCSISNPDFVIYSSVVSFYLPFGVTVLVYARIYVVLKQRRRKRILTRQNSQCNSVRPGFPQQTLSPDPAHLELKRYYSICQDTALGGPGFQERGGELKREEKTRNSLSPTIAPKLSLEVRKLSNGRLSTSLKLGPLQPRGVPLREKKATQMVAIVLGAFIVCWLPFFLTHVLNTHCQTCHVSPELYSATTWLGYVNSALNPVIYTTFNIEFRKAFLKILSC
Sequence of D2 DAR (P14416 whole entry): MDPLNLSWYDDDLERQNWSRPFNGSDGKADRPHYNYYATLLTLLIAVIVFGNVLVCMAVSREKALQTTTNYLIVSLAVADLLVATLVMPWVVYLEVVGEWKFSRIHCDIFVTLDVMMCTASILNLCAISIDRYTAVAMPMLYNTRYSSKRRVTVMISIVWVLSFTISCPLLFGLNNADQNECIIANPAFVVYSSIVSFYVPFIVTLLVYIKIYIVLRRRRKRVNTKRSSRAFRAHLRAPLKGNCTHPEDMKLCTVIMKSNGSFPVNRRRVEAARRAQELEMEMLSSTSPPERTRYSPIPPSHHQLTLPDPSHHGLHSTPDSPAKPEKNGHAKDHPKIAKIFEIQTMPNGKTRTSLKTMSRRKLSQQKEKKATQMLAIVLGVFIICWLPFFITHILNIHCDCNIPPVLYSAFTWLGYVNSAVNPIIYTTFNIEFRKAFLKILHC
Sequence of D3 DAR (P35462 whole entry): as the sequence (P35462 whole entry) above

Structure (SMILES): COc1ccc(OCCN2CCN(C(=O)c3cc4ccccc4[nH]3)CC2)cc1 [Compound 1, (1H-indol-2-yl)(4-(2-(4-methoxyphenoxy)ethyl)piperazin-1-yl)methanone]
- EC50 (D3 DAR): 0.036 µM
- D2 Emax (D2 DAR): Curve
- agonist activity, β-arrestin recruitment (BRET) (D3R [1]): potent and fully efficacious D3R-selective agonist
- agonist activity, G-protein mediated signaling (Go BRET) (D3R [2]): potent and fully efficacious D3R-selective agonist
- agonist activity, ERK phosphorylation (D3R [3]): potent and fully efficacious D3R-selective agonist
- β-Arrestin Recruitment activity (panel of 168 GPCRs [4]): 0%
- β-Arrestin Recruitment activity (panel of 168 GPCRs [5]): 4%
- β-Arrestin Recruitment activity (panel of 168 GPCRs [6]): 0%
- β-Arrestin Recruitment activity (panel of 168 GPCRs [7]): 0%
- β-Arrestin Recruitment activity (panel of 168 GPCRs [8]; GPCR CALCR RAMP2): 5%
- β-Arrestin Recruitment activity (panel of 168 GPCRs [8]; GPCR CALCR RAMP3): 6%
- β-Arrestin Recruitment activity (panel of 168 GPCRs [8]; GPCR CALCR): 0%
- β-Arrestin Recruitment activity (panel of 168 GPCRs [9]): 0%
- β-Arrestin Recruitment activity (panel of 168 GPCRs [10]): 6%
- β-Arrestin Recruitment activity (panel of 168 GPCRs [11]): 164%
- β-Arrestin Recruitment activity (panel of 168 GPCRs [12]): −3%
- β-Arrestin Recruitment activity (panel of 168 GPCRs [13]): 0%
- β-Arrestin Recruitment activity (panel of 168 GPCRs [14]): 0%
- β-Arrestin Recruitment activity (panel of 168 GPCRs [15]): 6%
- inhibition at 10 µM (5HT2B receptor; read-out: inhibition of response elicited by serotonin): 80%
- agonist activity, IP1 accumulation (5HT2B receptor; single high concentration of 10 μM): No agonist activity was found
- neuroprotection, dose-response [16]: clear concentration dependent effect
- neuroprotection, protection against total neurite length decrease ([16]; compared with pramipexole): neuroprotection superior to pramipexole
- AMES Result (TA100; TA100, S9 No): Negative
- AMES Result (TA100; TA100, S9 Yes): Negative
- AMES Result (TA98; TA98, S9 No): Negative
- AMES Result (TA98; TA98, S9 Yes): Negative
- AC50 [17]: > 50 µM
- AC50 (HepG2 cells; [18]): > 50 µM
- MEC (HepG2 cells; [18]): 8.58 µM
- AC50 (HepG2 cells; [19]): > 50 µM
- MEC (HepG2 cells; [19]): 6.03 µM
- AC50 (HepG2 cells; [20]): > 50 µM
- MEC (HepG2 cells; [20]): 13.9 µM
- AC50 (HepG2 cells; [21]): > 50 µM
- MEC (HepG2 cells; [21]): 11.9 µM
- MEC (HepG2 cells; Mitochondrial Membrane Potential, response direction ↓): 9.28 µM
- AC50 (HepG2 cells; [22]): > 50 µM
- MEC (HepG2 cells; [22]): 12.0 µM

From patent US11634404B2 (priority 2016, dated 2023)
